Reference: US20240158446A1, “CYCLIC COMPOUND HAVING SELECTIVE INHIBITORY ACTION ON KRAS OVER HRAS AND NRAS” (CHUGAI SEIYAKU KABUSHIKI KAISHA, priority 2021, published 2024)
Where two headings read alike, the source gives them in different places. Each block holds one molecule with its values, some of them ahead of it. Where a SMILES comes first, the peptide text is derived from it. Bridges are numbered along the chain shown (N, C = ends). [ ]: non-standard residue; d: D form. The star is where a group is joined. hPhe(3,5-F2-4-CF3) = N[C@@H](CCc1cc(F)c(C(F)(F)F)c(F)c1)C(=O)O; hPhe(3-Cl-4-CF3) = N[C@@H](CCc1ccc(C(F)(F)F)c(Cl)c1)C(=O)O; NPrPhe(4-CF3) = CCCN[C@@H](Cc1ccc(C(F)(F)F)cc1)C(=O)O; NMeGly(cPent) = CN[C@H](C(=O)O)C1CCCC1; NMeD = CN[C@@H](CC(=O)O)C(=O)O; NMeL = CN[C@@H](CC(C)C)C(=O)O; αMeV = CC(C)[C@](C)(N)C(=O)O; NMeNva = CCC[C@H](NC)C(=O)O; Morpholide = C1CN(*)CCO1; NMeA = CN[C@@H](C)C(=O)O; Ac5c = NC1(C(=O)O)CCCC1; Aze = O=C(O)[C@@H]1CCN1; Sar = CNCC(=O)O

How the values were obtained:
[1] = target: GDP-bound KRAS wild-type protein (Homo sapiens, UniProt P01116); test: Binding to KRAS by surface plasmon resonance (SPR), Single Cycle Kinetics; conditions: GDP-bound KRAS wild-type protein, read-out: KRAS KD
[2] = target: GDP-bound NRAS wild-type protein (Homo sapiens, UniProt P01111); test: Binding to NRAS by surface plasmon resonance (SPR), Single Cycle Kinetics; conditions: for NRAS/KRAS (ratio of KD value for NRAS to KD value for KRAS) / NRAS/KRAS (ratio of KD value with respect to NRAS to KD value with respect to KRAS): SPR, GDP-bound NRAS wild-type protein vs GDP-bound KRAS wild-type protein; for NRAS/KRAS (ratio of KD value with respect to GDP-bound NRAS wild-type protein to KD value with respect to KRAS): SPR KD ratio NRAS/KRAS, class symbols
[3] = target: GDP-bound HRAS wild-type protein (Homo sapiens, UniProt P01112); test: Binding to HRAS by surface plasmon resonance (SPR), Single Cycle Kinetics; conditions: for HRAS/KRAS (ratio of KD value for HRAS to KD value for KRAS) / HRAS/KRAS (ratio of KD value with respect to HRAS to KD value with respect to KRAS): SPR, GDP-bound HRAS wild-type protein vs GDP-bound KRAS wild-type protein; for HRAS/KRAS (ratio of KD value with respect to GDP-bound HRAS wild-type protein to KD value with respect to KRAS): SPR KD ratio HRAS/KRAS, class symbols
[4] = SPR Single Cycle Kinetics, 1:1 binding model

Chain of GDP-bound HRAS wild-type protein (P01112 whole entry): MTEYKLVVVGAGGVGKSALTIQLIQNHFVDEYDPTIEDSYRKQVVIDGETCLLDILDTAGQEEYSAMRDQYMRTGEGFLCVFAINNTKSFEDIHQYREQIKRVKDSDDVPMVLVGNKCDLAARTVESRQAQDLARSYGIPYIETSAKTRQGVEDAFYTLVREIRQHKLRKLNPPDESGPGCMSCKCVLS
Chain of GDP-bound KRAS wild-type protein (P01116 whole entry): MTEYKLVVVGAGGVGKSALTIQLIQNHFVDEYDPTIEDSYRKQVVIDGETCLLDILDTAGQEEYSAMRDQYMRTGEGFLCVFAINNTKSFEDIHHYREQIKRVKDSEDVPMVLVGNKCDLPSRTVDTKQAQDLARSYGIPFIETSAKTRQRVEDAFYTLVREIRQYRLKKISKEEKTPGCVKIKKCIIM
Chain of GDP-bound NRAS wild-type protein (P01111 whole entry): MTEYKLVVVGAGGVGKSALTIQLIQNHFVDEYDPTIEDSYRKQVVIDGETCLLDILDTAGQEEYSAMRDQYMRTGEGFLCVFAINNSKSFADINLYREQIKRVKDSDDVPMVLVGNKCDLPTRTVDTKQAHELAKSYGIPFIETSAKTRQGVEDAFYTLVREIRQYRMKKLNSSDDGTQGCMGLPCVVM

Kd [1, 4]: 0.17 nM
Compound: CCC[C@H]1C(=O)N[C@@H]([C@@H](C)CC)C(=O)N(C)[C@@H](C)C(=O)N2CC[C@H]2C(=O)N(CCC)[C@@H](Cc2ccc(C(F)(F)F)cc2)C(=O)N(C)CC(=O)N[C@@H](CCc2ccc(C(F)(F)F)c(Cl)c2)C(=O)N2CCC[C@H]2C(=O)NC2(CCCC2)C(=O)N(C)[C@@H](C2CCCC2)C(=O)N(C)[C@H](C(=O)N2CCOCC2)CC(=O)N1C [PP0193] ([NMeNva]I[NMeA][Aze][NPrPhe(4-CF3)][Sar][hPhe(3-Cl-4-CF3)]P[Ac5c][NMeGly(cPent)][NMeD]-Morpholide; lactam N-11)
NRAS/KRAS (ratio of KD value for NRAS to KD value for KRAS) [2]: C (A compound having a KD ratio of 0.1 or more and less than 3 is denoted as C)
HRAS/KRAS (ratio of KD value for HRAS to KD value for KRAS) [3]: C (A compound having a KD ratio of 0.1 or more and less than 3 is denoted as C)

Kd [1, 4]: 0.017 nM
Compound: CCO[C@@H]1C[C@H]2C(=O)NC3(CCC3)C(=O)N(C)[C@@H](C3CCCC3)C(=O)N(C)[C@H](C(=O)N(C)C)CC(=O)N(C)[C@@H](CC3CCCCC3)C(=O)N[C@@H]([C@@H](C)CC)C(=O)N(C)CC(=O)N(C)[C@H]3CCCCN(C3=O)[C@@H](Cc3ccc(C(F)(F)F)cc3)C(=O)N(C)CC(=O)N[C@@H](CCc3cc(F)c(C(F)(F)F)c(F)c3)C(=O)N2C1 [PP0701]
NRAS/KRAS (ratio of KD value with respect to NRAS to KD value with respect to KRAS) [2]: C (A compound having a KD ratio of 0.1 or more and less than 3 is denoted as C)
HRAS/KRAS (ratio of KD value with respect to HRAS to KD value with respect to KRAS) [3]: B (a compound having 3 or more and less than 10 is denoted as B)

Compound: CCO[C@@H]1C[C@H]2C(=O)NC3(CCC3)C(=O)N(C)[C@@H](C(CC)CC)C(=O)N(C)[C@H](C(=O)N3CCCCC3)CC(=O)N(C)[C@H]3CCC/C=C/c4ccc(cc4)C[C@@H](C(=O)N(C)CC(=O)N[C@@H](CCc4cc(F)c(C(F)(F)F)c(F)c4)C(=O)N2C1)N1CC/C=C\C[C@@H](C1=O)N(C)C(=O)CN(C1CC1)C(=O)[C@H]([C@@H](C)CC)NC3=O [PP2956]
Kd [1, 4]: 1.1 nM
NRAS/KRAS (ratio of KD value with respect to GDP-bound NRAS wild-type protein to KD value with respect to KRAS) [2]: AA (a compound having 20 or more is denoted as AA)
HRAS/KRAS (ratio of KD value with respect to GDP-bound HRAS wild-type protein to KD value with respect to KRAS) [3]: A (a compound having 10 or more and less than 20 is denoted as A)

Kd ([1]; SPR, Single Cycle Kinetics, 1:1 binding model): 4.3 nM
Compound: CCO[C@@H]1C[C@H]2C(=O)NC3(CC(C)(C)C3)C(=O)N(C)[C@@H](C(CC)CC)C(=O)N(C)C(C(C)C)CC(=O)N(C)[C@@H](CC3CC3)C(=O)N[C@@H]([C@@H](C)CC)C(=O)N(C)CC(=O)N(C)[C@H]3C/C=C\CCN(C3=O)[C@@H](Cc3ccc(C(F)(F)F)cc3)C(=O)N(C)CC(=O)N[C@@H](CCc3cc(F)c(C(F)(F)F)c(F)c3)C(=O)N2C1 (stereo partly drawn) [PP1593]
NRAS/KRAS (ratio of KD value for NRAS to KD value for KRAS) ([2]; KD ratio class): A (a compound having 10 or more and less than 20 is denoted as A)
HRAS/KRAS (ratio of KD value for HRAS to KD value for KRAS) ([3]; KD ratio class): A (a compound having 10 or more and less than 20 is denoted as A)

Kd ([1]; SPR, Single Cycle Kinetics): 0.075 nM
Compound: C#CC[C@H]1C(=O)N[C@@H]([C@@H](C)CC)C(=O)N(C)CC(=O)N(C)[C@H]2C/C=C\CCN(C2=O)[C@@H](Cc2ccc(C(F)(F)F)cc2)C(=O)N(C)CC(=O)N[C@@H](CCc2ccc(C(F)(F)F)c(OC)c2)C(=O)N2C[C@@H](C)C[C@H]2C(=O)NC2(CCC2)C(=O)N(C)[C@@H](C2CCCC2)C(=O)N(C)[C@H](C(=O)N(C)CC)CC(=O)N1C [PP2061]
NRAS/KRAS (ratio of KD value for NRAS to KD value for KRAS) [2]: AA (a compound having 20 or more is denoted as AA)
HRAS/KRAS (ratio of KD value for HRAS to KD value for KRAS) [3]: A (a compound having 10 or more and less than 20 is denoted as A)

Kd [1, 4]: 0.13 nM
Compound: CCO[C@@H]1C[C@H]2C(=O)NC3(CC(C)(C)C3)C(=O)N(C)[C@@H](C3CCCC3)C(=O)N(C)[C@H](C(=O)N(C)CC)CC(=O)N(C)[C@@H](CC)C(=O)N[C@@H]([C@@H](C)CC)C(=O)N(C)CC(=O)N(C)[C@H]3C/C=C\CCN(C3=O)[C@@H](Cc3ccc(C(F)(F)F)cc3)C(=O)N(C)CC(=O)N[C@@H](CCc3ccc(C(F)(F)F)c(Cl)c3)C(=O)N2C1 [PP2823]
NRAS/KRAS (ratio of KD value with respect to GDP-bound NRAS wild-type protein to KD value with respect to KRAS) [2]: A (a compound having 10 or more and less than 20 is denoted as A)
HRAS/KRAS (ratio of KD value with respect to GDP-bound HRAS wild-type protein to KD value with respect to KRAS) [3]: A (a compound having 10 or more and less than 20 is denoted as A)

Kd [1, 4]: 0.27 nM
Compound: CCCN1C(=O)CN(C)C(=O)CN(C)C(=O)[C@H]([C@@H](C)CC)NC(=O)[C@H](CC(C)C)N(C)C(=O)C[C@@H](C(=O)N(C)C)N(C)C(=O)[C@H](C2CCCC2)N(C)C(=O)[C@](C)(C(C)C)NC(=O)[C@@H]2CCCN2C(=O)[C@H](CCc2cc(F)c(C(F)(F)F)c(F)c2)NC(=O)CN(C)C(=O)[C@@H]1Cc1ccc(C(F)(F)F)cc1 [PP0735] ([NMeL]I[Sar][Sar][NPrPhe(4-CF3)][Sar][hPhe(3,5-F2-4-CF3)]P[αMeV][NMeGly(cPent)][NMeD]-NMe2; lactam N-11)
NRAS/KRAS (ratio of KD value with respect to NRAS to KD value with respect to KRAS) [2]: B (a compound having 3 or more and less than 10 is denoted as B)
HRAS/KRAS (ratio of KD value with respect to HRAS to KD value with respect to KRAS) [3]: C (A compound having a KD ratio of 0.1 or more and less than 3 is denoted as C)
